This passage reports IC50 results from US20260217697A1, “COMPOUNDS COMPRISING HETEROARYL RINGS AND COMPOSITIONS AND METHODS THEREOF” (lonGen Therapeutics Co., Ltd., priority 2022, published 2026).

The target in the experiment is T1, hTRPV3 (Homo sapiens, UniProt Q8NET8).
T1 construct: The commercially available plasmid with the full-length cDNA of hTRPV3 (791 aa) (NM_001258205.2); host or cells: HEK293T
T1 sequence (Q8NET8 1-791 isoform Q8NET8-2): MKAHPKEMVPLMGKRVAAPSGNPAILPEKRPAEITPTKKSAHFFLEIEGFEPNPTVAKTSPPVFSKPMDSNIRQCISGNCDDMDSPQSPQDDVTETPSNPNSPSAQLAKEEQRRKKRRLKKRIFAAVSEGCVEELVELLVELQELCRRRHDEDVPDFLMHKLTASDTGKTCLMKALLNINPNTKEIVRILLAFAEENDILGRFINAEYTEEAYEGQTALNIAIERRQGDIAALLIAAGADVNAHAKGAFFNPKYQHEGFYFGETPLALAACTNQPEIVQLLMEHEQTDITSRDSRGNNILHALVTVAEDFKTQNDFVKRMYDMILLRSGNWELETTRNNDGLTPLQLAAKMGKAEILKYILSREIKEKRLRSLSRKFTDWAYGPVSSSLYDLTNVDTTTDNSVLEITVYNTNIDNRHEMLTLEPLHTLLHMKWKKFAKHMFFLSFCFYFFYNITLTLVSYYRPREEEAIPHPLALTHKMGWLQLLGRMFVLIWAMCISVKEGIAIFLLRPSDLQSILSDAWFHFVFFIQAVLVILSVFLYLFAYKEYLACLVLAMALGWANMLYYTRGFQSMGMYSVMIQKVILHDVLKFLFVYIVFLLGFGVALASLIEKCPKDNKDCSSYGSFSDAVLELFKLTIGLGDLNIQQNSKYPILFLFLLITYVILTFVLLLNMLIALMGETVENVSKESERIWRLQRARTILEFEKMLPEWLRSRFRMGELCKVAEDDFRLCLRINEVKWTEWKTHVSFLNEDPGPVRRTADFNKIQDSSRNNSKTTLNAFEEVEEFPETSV
The experiment can be described thus: Whole-cell patch-clamp recording of hTRPV3 current in transfected HEK293T cells (2-APB induced). Type of experiment: cell-based. The conditions noted are these: current induced by 300 μM 2-APB, compounds tested up to 10 μM, room temperature. In outline: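 HEK293T cells transiently expressing full-length hTRPV3, recorded by whole-cell patch clamp 18 h post-transfection at room temperature, with 130 mM NaCl/0.3 mM EDTA/3 mM HEPES pH 7.4 on both sides. Holding potential 0 mV; 400-ms steps to +80 and −80 mV every 2 s. Block of 2-APB-evoked current, tested up to 10 μM, fitted to Hill equation for IC50.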
Background: In patch-clamp work, channel activity is measured electrically.

With `CCC1(CC)Oc2cc(C(F)(F)F)ccc2-c2nc(NC(=O)c3c(OC)nc(OC)nc3OC)sc21` [compound 158, N-(4,4-diethyl-7-(trifluoromethyl)-4H-chromeno[4,3-d]thiazol-2-yl)-2,4,6-trimethoxypyrimidine-5-carboxamide], the IC50 was at least 10000 nM.
Then `COc1ncnc(OC)c1C(=O)Nc1nc2c(s1)C1(CN(C3CCC3)C1)Oc1cc(C(F)(F)F)ccc1-2` [compound 159, N-(1-cyclobutyl-7′-(trifluoromethyl)spiro[azetidine-3,4′-chromeno[4,3-d]thiazol]-2′-yl)-4,6-dimethoxypyrimidine-5-carboxamide], with below 100 nM.
`COc1ncnc(OC)c1C(=O)Nc1nc2c(s1)C1(CN(C3COC3)C1)Oc1cc(C(F)(F)F)ccc1-2` [compound 160, 4,6-dimethoxy-N-(1-(oxetan-3-yl)-7′-(trifluoromethyl)spiro[azetidine-3,4′-chromeno[4,3-d]thiazol]-2′-yl)pyrimidine-5-carboxamide] had an IC50 of 100 to 1000 nM.
In turn, `CCC1(CC)Oc2cc(C(F)(F)F)ccc2-c2nc(NC(=O)c3c(OC)nn(C)c3Br)sc21` [compound 161, 5-bromo-N-(4,4-diethyl-7-(trifluoromethyl)-4H-chromeno[4,3-d]thiazol-2-yl)-3-methoxy-1-methyl-1H-pyrazole-4-carboxamide] registered an IC50 of at least 10000 nM.
With `CCC1(CC)Oc2cc(C(F)(F)F)ccc2-c2nc(NC(=O)c3c(OC)nc(C)nc3OC)sc21` [compound 162, N-(4,4-diethyl-7-(trifluoromethyl)-4H-chromeno[4,3-d]thiazol-2-yl)-4,6-dimethoxy-2-methylpyrimidine-5-carboxamide], the IC50 is 1000 to 10000 nM.
The compound `COC(=O)CN1CC2(C1)Oc1cc(C(F)(F)F)ccc1-c1nc(NC(=O)c3c(OC)ncnc3OC)sc12` [compound 163] had an IC50 below 100 nM.
In turn, `COc1ncnc(OC)c1C(=O)Nc1nc2c(s1)C1(CN(CCN(C)C)C1)Oc1cc(C(F)(F)F)ccc1-2` [compound 164, N-(1-(2-(dimethylamino)ethyl)-7′-(trifluoromethyl)spiro[azetidine-3,4′-chromeno[4,3-d]thiazol]-2′-yl)-4,6-dimethoxypyrimidine-5-carboxamide] had an IC50 of 1000 to 10000 nM.
With `COc1ncnc(OC)c1C(=O)Nc1nc2c(s1)C1(CN(CC(=O)O)C1)Oc1cc(C(F)(F)F)ccc1-2` [compound 165], the IC50 was at least 10000 nM.
In turn, `COc1ncnc(OC)c1C(=O)Nc1nc2c(s1)C1(CN(CCO)C1)Oc1cc(C(F)(F)F)ccc1-2` [compound 166, N-(1-(2-hydroxyethyl)-7′-(trifluoromethyl)spiro[azetidine-3,4′-chromeno[4,3-d]thiazol]-2′-yl)-4,6-dimethoxypyrimidine-5-carboxamide] showed an IC50 of 100 to 1000 nM.
`COc1ncnc(OC)c1C(=O)Nc1nc2c(s1)C1(CN(C(C)(C)CC(C)=O)C1)Oc1cc(C(F)(F)F)ccc1-2` [compound 167, 4,6-dimethoxy-N-(1-(2-methyl-4-oxopentan-2-yl)-7′-(trifluoromethyl)spiro[azetidine-3,4′-chromeno[4,3-d]thiazol]-2′-yl)pyrimidine-5-carboxamide] gave an IC50 of 100 to 1000 nM.
Regarding `COc1ncnc(OC)c1C(=O)Nc1nc2c([se]1)C1(CN(C(=O)OC(C)(C)C)C1)Oc1cc(C(F)(F)F)ccc1-2` [compound 168, tert-butyl 2′-(4,6-dimethoxypyrimidine-5-carboxamido)-7′-(trifluoromethyl)spiro[azetidine-3,4′-chromeno[4,3-d][1,3]selenazole]-1-carboxylate], the IC50 lay in the range of 100 to 1000 nM.

By IC50 is commonly meant the concentration that gives 50% inhibition. Low values mean higher potency, high ones lower potency.
